Patent publication US9072660B2, “Topical itraconazole formulations and uses thereof” (THE BOARD OF TRUSTEES OF THE LELAND STANFORD JUNIOR …, priority 2011, dated 2015)

How the values were obtained:
[1] = cited from earlier work
[2] = test system: BSZ BCC tumor cell line (GLI1 mRNA); assay: GLI1 mRNA expression in BCC tumor cell line BSZ; type: cell-based, mice; conditions: BSZ cells, vs DMSO control
[3] = test system: BCC tumors; assay: oral itraconazole in patients with BCC tumors; type: in vivo, humans; conditions: oral 400 mg per day for 1 month
[4] = test system: Hedgehog signaling pathway (Smo); conditions: cited from earlier work
[5] = cited from earlier work; remark: listed apart in the source
[6] = test system: ASZ BCC tumor cell line (GLI1 mRNA); assay: GLI1 mRNA expression in BCC tumor cell line ASZ; type: cell-based, mice; conditions: ASZ cells, vs DMSO control
[7] = test system: BCC tumors; assay: oral itraconazole on endogenous BCC tumors in PTCH1+/- K14-Cre-ER2 p53fl/fl mice; type: in vivo
[8] = test system: BCCs (Smo); conditions: cited from earlier work

serum concentrations required for oral anti-BCC effect in mouse vs those reached in humans at regular therapeutic doses (400 mg/day orally) ([7]; in vivo mouse studies)	Compound	Half-life ([1]; in vivo) [h]	Oral Bio-availability ([1]; with meal) [%]	GLI1 mRNA expression ([2]; 0.1 μM)	GLI1 mRNA expression ([2]; 1.0 μM)	change of BCC tumor size on average (95% Confidence Interval: 11% to −62%) [3] [%]	ciliary accumulation of Smo normally caused by HH stimulation [4]	inhibition of the HH signaling pathway ([4]; model cell-based assays, by binding to Smo)	expression of the HH target gene GLI1 ([4]; model cell-based assays)	Protein binding [5] [%]	GLI1 mRNA expression ([6]; 0.1 μM)	GLI1 mRNA expression ([6]; 1.0 μM)	BCC tumor necrosis ([7]; itraconazole 400 mg/day vs cyclodextrin control treated mice, P<0.02, FIG. 2 left)	reduction of BCC tumor size ([7]; oral gavage, 200 mg BID, in 15 days, vs control (cyclodextrin or acetone), P<0.05, FIG. 1) [%]	inhibition of BCCs ([8]; model systems (in vitro and in vivo))	side effects ([8]; systemic use)
appreciably higher	CCC(C)n1ncn(-c2ccc(N3CCN(c4ccc(OC[C@H]5CO[C@](Cn6cncn6)(c6ccc(Cl)cc6Cl)O5)cc4)CC3)cc2)c1=O (relative stereo) [itraconazole, (2R,4S)-rel-1-(butan-2-yl)-4-{4-[4-(4-{[(2R,4S)-2-(2,4-dichlorophenyl)-2-(1H-1,2,4-triazol-1-ylmethyl)-1,3-dioxolan-4-yl]methoxy}phenyl)piperazin-1-yl]phenyl]-4,5-dihydro-1H-1,2,4-triazol-5-one]	21	55	reduced	reduced	−21	prevents	potently inhibited	decreased	99.8	reduced	reduced	caused BCC tumor necrosis	50	–	–
–	CC1=C2C[C@H]3[C@@H](CC=C4C[C@@H](O)CC[C@@]43C)[C@@H]2CC[C@]12O[C@@H]1C[C@H](C)CN[C@H]1[C@H]2C [cyclopamine]	–	–	–	–	–	–	–	–	–	–	–	–	–	effectively inhibited	severe side effects
